Experimental data from patent publication US6566545B2, “Menthol derivatives and process for preparing the same” (Pacific Corporation, priority 2001, dated 2003).

How the values were obtained:
[1] = Solubility in aqueous and aqueous mixed solution
Description: To observe the solubility of the menthol 3-aminopropylphosphate in the aqueous phase, solubility were measure in aqueous and aqueous mixed solution.
Menthol was used as relativity group.

[2] = test system: back of New Zealand White Rabbit; assay: Retinol-induced skin irritation on rabbit back, Draize Primary Irritation Index; assay type: in vivo; conditions: for Irritation Index: Draize Primary Irritation Index, 0.01% agent applied with 1000 I.U. retinol as irritation source, twice a day, rabbit back skin; for Relative Ratio: irritation relative to blank applied only with retinol, 0.01% agent
Description: The hairs on the back of New Zealand White Rabbit were removed and fed with sufficient water and nutrition. At the areas of 1.5 cm×1.5 cm on the back of the rabbit, menthol, menthol 3-aminopropylphosphate (MPA) and 1000 I.U. of retinol as irritation source were applied respectively. The number of applying positions for each rabbit was 8˜10, and the agents were applied twice a day with 6 hours of time interval. The applied positions were exposed to air. Erythema, rash or edema was measured everyday after 48 hours has passed from the first apply during 1 week to observe the irritation. According to the “Primary Irritation Index” of Draize, the degree of irritation was determined. Relative irritation was calculated with the ratio to the blank sample that applied only with retinol, and the results are shown in Table 1 and FIG. 1.

phosphatase = assay: Hydrolysis by phosphatase in phosphoric buffer pH 7.4, HPLC; assay type: in vitro ADME; conditions: 3-aminopropylphosphoric acid measured by HPLC (FIG. 2)
Description: To clarify the activity of menthol 3-aminopropylphosphate obtained in Example 2, the hydrolysis of the menthol 3-aminopropylphosphate by a phosphatase in the skin was observed. That is, the preparation of menthol and 3-aminopropylphosphoric acid by the hydrolysis was observed.
3-aminopropylphosphate and phosphatase were added to phosphoric buffer solution with pH 7.4, then, hydrolysis was performed. The phosphatase used above was Alkaline Phosphate manufactured by SIGMA, Co., Ltd.
The amount of the 3-aminopropylphosphoric acid prepared by the hydrolysis was measured by means of HPLC, and the results are shown in FIG. 2.

Compound	solubility ([1]; H2O)	solubility ([1]; H2O:1,3-BG = 1:1)	solubility ([1]; H2O:Ethanol = 1:1)	solubility ([1]; H2O:Ethanol = 5:1)	aqueous solubility compared with menthol ([1]; in words)	Irritation Index [2]	Relative Ratio [2]	hydrolysis by phosphatase (phosphatase)
CC1CCC(C(C)C)C(OP(=O)(O)OCCCN)C1 (stereo not drawn) [menthol 3-aminopropyl phosphate, Menthol 3-Aminopropylphosphate]	0.3%	5%	6%	1%	increased very much compared with menthol itself	6.07	0.63	hydrolyzed by the phosphatase of the skin and formed menthol and 3-aminopropylphosphoric
C[C@]12CCC(=O)C=C1CC[C@@H]1[C@@H]2[C@@H](O)C[C@@]2(C)[C@H]1CC[C@]2(O)C(=O)CO [hydrocortisone]						5.10	0.53	
CC1CCC(C(C)C)C(O)C1 (stereo not drawn) [menthol]						9.34	0.97	
